Usually Ki stands for the dissociation constant of the complex between target and ligand, obtained from inhibition or displacement. In general, IC50 refers to the concentration that inhibits the measured activity by half. The term CC50 denotes the concentration at which the toxic effect on the cells reaches its halfway point. Broadly, the Kd is a measure of binding affinity in units of concentration.

Entries after “also recorded” stand apart in the source; their conditions may differ. Where two headings read alike, the source gives them in different places.

The text below walks through data of publication PMC11847361, “Design and screening of novel molecular compounds targeting lactate dehydrogenase of Babesia microti” (Parasites & Vectors, 2025).

One data set concerns the target human LDH-M (LDH-A4). On the set-up: method as in PMID 9748363. Conditions: cited from earlier work.
In data set [1] the test system is Plasmodium falciparum LDH. Also noted: method as in PMID 9748363. As to conditions: cited from earlier work.
For data set [2], the system named is LDH activity in B. microti. As to conditions: cited from earlier work; for IC50: previous work.
The next data set in a line: in vitro. Type of data set: cell-based. Conditions: African green monkey. Here is the method:
The mycoplasma-free Vero cell line (ATCC-CCL-81, immortalized cells) was cryopreserved in liquid nitrogen with DMSO at the National Key Laboratory of Agricultural Microbiology, Huazhong Agricultural University, China. The cytotoxicity of compounds TA and TB was assessed in Vero cells using the CCK-8 assay (Vazyme). Briefly, Vero cells (100 µL, 10,000 cells/well) were cultured in Dulbecco’s modified Eagle medium (DMEM) supplemented with 10% fetal bovine serum (FBS) and 100 U/mL penicillin–streptomycin at 37 ℃ with 5% CO2 for 24 h. The cells were then treated with varying concentrations of TA (2000, 1000, 500, 250, and 125 μM) or TB (800, 400, 200, 100, and 50 μM) for 72 h. After the treatment period, the medium containing TA and TB was replaced with fresh medium. Subsequently, 10 µL of CCK-8 solution was added to each well, and the plate was incubated for an additional 3 h. Absorbance was measured at 450 nm using a multifunctional enzyme marker (Envision, PE, USA). Stock solutions of TA and TB were prepared at a concentration of 100 mM in absolute ethanol. Doxorubicin hydrochloride at 40 µM served as the positive control, while 2% absolute ethanol served as the negative control. The concentration required to achieve 50% cytotoxicity (CC50) values were calculated using GraphPad Prism 8, and all cytotoxicity assays were performed in triplicate.

In data set [3] the target is T1, rBmLDH (Babesia microti, UniProt I7J7V6). It counts as binding. As to conditions: for Kd: read-out: equilibrium dissociation constant (Kd).
T1 sequence (I7J7V6 1-332): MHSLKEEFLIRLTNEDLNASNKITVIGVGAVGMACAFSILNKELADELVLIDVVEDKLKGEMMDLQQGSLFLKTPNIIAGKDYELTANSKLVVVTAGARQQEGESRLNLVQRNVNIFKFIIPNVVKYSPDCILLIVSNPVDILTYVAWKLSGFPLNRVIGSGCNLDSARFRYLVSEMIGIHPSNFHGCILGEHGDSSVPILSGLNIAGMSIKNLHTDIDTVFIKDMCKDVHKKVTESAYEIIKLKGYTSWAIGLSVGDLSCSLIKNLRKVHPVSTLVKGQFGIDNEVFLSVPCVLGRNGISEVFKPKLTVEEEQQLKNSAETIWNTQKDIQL
The target in data set [4] is T1, rBmLDH. It counts as biochemical. As to conditions: pH 9.5; read-out: BmLDH IC50.
Another data set relates to B. microti. Put plainly: In vitro growth inhibition of B. microti. It counts as cell-based. Conditions: Babesia microti, Erythrocyte, 72 h, read-out: B. microti IC50 (growth inhibition). Here is the method: Once parasitemia reached 60%, blood was collected from the tails of the mice, and the initial percent parasitized erythrocytes (PPE) was diluted to approximately 0.8% using healthy mouse erythrocytes. […] Cultures were incubated for 72 h at 37 ℃ in a gas mixture of 2% O2, 5% CO2, and 93% N2 [23, 24]. After incubation, blood smears were prepared, stained with Giemsa, and the parasitemia rate was calculated. All experiments were performed in triplicate.

`CCCc1c(O)c(O)c(C(=O)O)c2cc(Cc3ccccc3)c(C)cc12` [Compound 11F]: the Ki on human LDH-M (LDH-A4) is 0.05 µM; in data set [1] it was 0.3 µM.
Turning to `O=C(O)c1cc2cc(Br)ccc2c(Br)c1O` [DBHCA, 1,6-dibromo-2-hydroxynapthalene 3-carboxylic acid], in data set [2], the IC50 is 52.7 µM.
On to `O=C(O)c1cc2cccc(O)c2cc1O` [DHNA, 3,5-dihydroxy-2-naphthoxylic acid], for which the 50% inhibitory concentration (IC50) in data set [2] was 30 µM.
`Cc1cc2c(C(C)C)c(O)c(O)c(C=O)c2c(O)c1-c1c(C)cc2c(C(C)C)c(O)c(O)c(C=O)c2c1O` [Gossypol]: in data set [2] (in vitro), the “concentration that significantly inhibits LDH activity in B. microti” value is recorded as 592 nM.
`O=C(O)c1ccccc1Cc1ccc2ccc(O)cc2c1` [TA] registered a CC50 at 72 h in the data set “in vitro” of 1030 µM. Moreover, at rBmLDH [3], the “binding capacity/affinity to rBmLDH compared with lead compound DHNA” value is listed as “over a threefold increase in binding capacity; also recorded: more than three times higher affinity” and the Kd was found to be 11.3 µM. In addition, the IC50 at rBmLDH [4] amounted to 71.6 µM. In addition, the IC50 with B. microti (in vitro culture in mouse erythrocytes, 37 ℃) turned out to be 122 µM.
As to `O=C(O)c1cccc(-c2ccc3ccc(O)cc3c2)c1` [TB], it took 434 µM to reach half-maximal cytotoxicity in the data set “in vitro” (CC50 at 72 h). Moreover, on rBmLDH [3], the “binding capacity/affinity to rBmLDH compared with lead compound DHNA” value is “over a threefold increase in binding capacity; also recorded: more than three times higher affinity”. For the same molecule, the dissociation constant Kd at rBmLDH [3] worked out at 13.2 µM. Further, the IC50 at rBmLDH [4] was 23.8 µM; in the data set with B. microti (in Mus musculus), 112 µM.
